Tests used:
[1] = tested on: cysteine reactivity in H2122 and H1975 cells; assay: isoTOP-ABPP of cysteine reactivity changes after staurosporine or AZD9291 treatment; type: cell-based, human; details: staurosporine 1 μM, 4 h (H2122, H1975); AZD9291 1 μM, 24 h (H1975)
Method: For analysis of cysteines that change following induction of apoptosis, H2122 and H1975 cells were treated with DMSO or staurosporine (1 μM, 4 h) in full RPMI. H1975 cells were treated with DMSO or AZD9291 (1 μM, 24 h) in full RPMI. Cells were lysed as described above. […] Samples were conjugated by copper-catalyzed azide-alkyne cycloaddition (CuAAC) to isotopically labeled, TEV-cleavable tags (TEV-tags). Heavy CuAAC reaction mixtures was added to the DMSO-treated or shGFP control samples and light CuAAC reaction mixture was added to compound-treated or shNRF2 samples. The CuAAC reaction mixture consisted of TEV tags (light or heavy, 10 μL of 5 mM stocks in DMSO, final concentration=100 μM), 1 mM tris(2-carboxyethyl)phosphine hydrochloride (TCEP; fresh 50× stock in water, final concentration=1 mM), ligand (17× stock in DMSO:t-butanol 1:4, final concentration=100 μM) and 1 mM CuSO4 (50× stock in water, final concentration=1 mM). The samples were allowed to react for 1 h at which point the samples were centrifuged (16,000×g, 5 min, 4° C.). The resulting pellets were sonicated in ice-cold methanol (500 μL) and the resuspended light- and heavy-labeled samples were then combined pairwise and centrifuged (16,000×g, 5 min, 4° C.). […] Samples were analyzed using an LTQVelos Orbitrap mass spectrometer (Thermo Scientific) coupled to an Agilent 1200-series quaternary pump. […]

NR0B1 = molecular target: T1, NR0B1 (Homo sapiens, UniProt P51843); assay: isoTOP-ABPP of compound-treated H460 cells: NR0B1; type: cell-based; details: NSCLC cells, 40 μM, 3 h
T1 construct: H460 cells or H460 cells expressing luciferase in a 10 cm plate were incubated with indicated compounds; endogenous in cells; host or cells: H460 (NSCLC, KEAP1-mutant)
T1 sequence (P51843 1-470): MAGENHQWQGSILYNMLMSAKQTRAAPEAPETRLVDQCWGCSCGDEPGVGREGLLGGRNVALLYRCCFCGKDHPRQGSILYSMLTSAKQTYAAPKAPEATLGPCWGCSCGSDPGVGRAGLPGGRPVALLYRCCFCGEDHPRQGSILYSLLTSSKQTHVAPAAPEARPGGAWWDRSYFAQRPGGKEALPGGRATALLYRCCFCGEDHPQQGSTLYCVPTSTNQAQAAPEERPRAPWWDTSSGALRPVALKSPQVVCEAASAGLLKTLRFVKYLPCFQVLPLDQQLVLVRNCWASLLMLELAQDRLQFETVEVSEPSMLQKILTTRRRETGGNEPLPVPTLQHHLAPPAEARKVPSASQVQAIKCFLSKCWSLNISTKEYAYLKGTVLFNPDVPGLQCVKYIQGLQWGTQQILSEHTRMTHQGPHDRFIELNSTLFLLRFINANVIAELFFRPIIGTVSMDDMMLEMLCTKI
Method: For analysis of NR0B1 ligands or control compound reactivity, H460 cells or H460 cells expressing luciferase in a 10 cm plate were incubated with indicated compounds in serum/dye-free RPMI for 3 hours at 37° C. Cells were washed once ice-cold PBS and lysed in 1% Triton X-100 dissolved in PBS with protease inhibitors (Sigma) by sonication. Samples were clarified by centrifugation for 10 min at 16,000×g. Lysate was adjusted to 1.5 mg ml^−1 in 500 μL.
Samples were labeled for 1 h at ambient temperature with 100 μM iodoacetamide alkyne (1, IA-alkyne, 5 μL of 10 mM stock in DMSO). Samples were conjugated by copper-catalyzed azide-alkyne cycloaddition (CuAAC) to isotopically labeled, TEV-cleavable tags (TEV-tags). Heavy CuAAC reaction mixtures was added to the DMSO-treated or shGFP control samples and light CuAAC reaction mixture was added to compound-treated or shNRF2 samples. The CuAAC reaction mixture consisted of TEV tags (light or heavy, 10 μL of 5 mM stocks in DMSO, final concentration=100 μM), 1 mM tris(2-carboxyethyl)phosphine hydrochloride (TCEP; fresh 50× stock in water, final concentration=1 mM), ligand (17× stock in DMSO:t-butanol 1:4, final concentration=100 μM) and 1 mM CuSO4 (50× stock in water, final concentration=1 mM). The samples were allowed to react for 1 h at which point the samples were centrifuged (16,000×g, 5 min, 4° C.). The resulting pellets were sonicated in ice-cold methanol (500 μL) and the resuspended light- and heavy-labeled samples were then combined pairwise and centrifuged (16,000×g, 5 min, 4° C.). The pellets were solubilized in PBS containing 1.2% SDS (1 mL) with sonication and heating (5 min, 95° C.) and any insoluble material was removed by an additional centrifugation step at ambient temperature (14,000×g, 1 min).
For each sample, 100 μL of streptavidin-agarose beads slurry (Fisher) was washed in 10 mL PBS and then resuspended in 6 mL PBS (final concentration 0.2% SDS in PBS). The SDS-solubilized proteins were added to the suspension of streptavidin-agarose beads and the bead mixture was rotated for 3 h at ambient temperature. After incubation, the beads were pelleted by centrifugation (1,400×g, 3 min) and were washed (2×10 mL PBS and 2×10 mL water).
The beads were transferred to eppendorftubes with 1 mL PBS, centrifuged (1,400×g, 3 min), and resuspended in PBS containing 6 M urea (500 μL). To this was added 10 mM DTT (25 μL of a 200 mM stock in water) and the beads were incubated at 65° C. for 15 mins. 20 mM iodoacetamide (25 μL of a 400 mM stock in water) was then added and allowed to react at 37° C. for 30 mins with shaking. The bead mixture was diluted with 900 μL PBS, pelleted by centrifugation (1,400×g, 3 min), and resuspended in PBS containing 2 M urea (200 μL). To this was added 1 mM CaCl2 (2 μL of a 200 mM stock in water) and trypsin (2 μg, Promega, sequencing grade) and the digestion was allowed to proceed overnight at 37° C. with shaking. The beads were separated from the digest with Micro Bio-Spin columns (Bio-Rad) by centrifugation (1,000×g, 1 min), washed (2×1 mL PBS and 2×1 mL water) and then transferred to fresh eppendorf tubes with 1 mL water. The washed beads were washed once further in 140 μL TEV buffer (50 mM Tris, pH 8, 0.5 mM EDTA, 1 mM DTT) and then resuspended in 140 μL TEV buffer. 5 μL TEV protease (80 μM) was added and the reactions were rotated overnight at 29° C. The TEV digest was separated from the beads with Micro Bio-Spin columns by centrifugation (1,400×g, 3 min) and the beads were washed once with water (100 μL). The samples were then acidified to a final concentration of 5% (v/v) formic acid and stored at −80° C. prior to analysis.
Samples processed for multidimensional liquid chromatography tandem mass spectrometry (MudPIT) were pressure loaded onto a 250 μm (inner diameter) fused silica capillary columns packed with C18 resin (Aqua 5 μm, Phenomenex). […]

NR0B1-SNW1 interaction = molecular target: T2, NR0B1-SNW1 interaction (Homo sapiens, UniProt P51843); assay: In vitro binding assay: NR0B1 in H2122 lysate binding to immobilized FLAG-SNW1
T2 construct: endogenous in cells; host or cells: NR0B1: H2122 cell lysate
T2 sequence (P51843 1-470): T1 sequence (P51843 1-470)
Method: H2122 clarified cell lysate (100 μL, 1 mg ml^−1) in IP-buffer were incubated with the indicated compounds or vehicle (DMSO) for 3 hours at 4° C. with rotation. Following treatment, 3 volumes of IP-buffer was added along with immobilized FLAG-SNW1 beads (30 μL, 50:50 slurry), which was incubated for an additional hour at 4° C. Beads were washed three times with IP-buffer supplemented with 500 mM NaCl. Immunoprecipitated proteins were resolved by SDS-PAGE and analyzed by immunoblotting. NR0B1 and HA-NR0B1 levels were determined by using the NR0B1 antibody (Cell Signaling). IC50 curves were determined using Prism 6 (Graphpad) software, with maximum and minimum values set at 100% NR0B1 bound 0% NR0B1 bound respectively.
Statistical analysis was preformed using GraphPad Prism version 6 or 7 for Mac, GraphPad Software, La Jolla Calif. USA, or the R statistical programming language. Inhibition curves of the NR0B1-SNW1 interactions by NR0B1-ligand are fit as using log(inhibitor) vs % normalized remaining of NR0B1-SNW1 interaction and data points are plotted as the mean±SD (n=2-5 per group). NR0B1 half-life was calculated from a one-phase exponential decay curve plotted as mean±SD (4-10 per group). Statistical significance was defined as p<0.05 and determined by 2-tailed Student's t-test (FIG. 1I, FIG. 3B), two-way Anova with Bonferroni post-test analysis (FIG. 1J) or correlation analysis using Pearson product-moment correlation coefficient (FIG. 4B, FIG. 10G).
Next, a chemical probe targeting C274 of NR0B1 was developed. Using an in vitro binding assay (FIG. 5B), an ˜80-member library of cysteine-reactive electrophilic compounds was screened at 50 μM for blockade of interactions between endogenous NR0B1 and recombinant FLAG-SNW1 in cell lysates (FIG. 5C). Among the hits (>50% blockade) were a series of N-disubstituted chloroacetamides (CAs), including BPK-26 (FIGS. 5D, 5E), that were selected for further investigation. […] Both BPK-26 and BPK-29 inhibited the NR0B1-SNW1 interaction with IC50 values between 10-20 μM in vitro (FIG. 11C).

KEAP1-mutant NSCLC cells = assay: Colony formation in soft agar, KEAP1-mutant NSCLC cells; type: cell-based, human; details: 5 μM
From the text: Based on its in situ activity (FIG. 6D and FIG. 12A, 12G) and selectivity (FIGS. 6A, 6B), BPK-29 was chosen for additional biological studies. […] Exogenous expression of […] the growth inhibition caused by BPK-29.

SMILES: C=CC(=O)Nc1cc(Nc2nccc(-c3cn(C)c4ccccc34)n2)c(OC)cc1N(C)CCN(C)C [AZD9291]
- changes in cysteine reactivity [1]: neither of which caused substantive changes in cysteine reactivity

SMILES: COc1cc(CN(C(=O)CCl)c2cc(C(C)(C)C)ccc2OC)ccc1OCc1ccccc1 [BPK-27, N-(4-(benzyloxy)-3-methoxybenzyl)-N-(5-(tert-butyl)-2-methoxyphenyl)-2-chloroacetamide]
- engagement of C274 of NR0B1 (NR0B1): did not engage C274
- inhibition of the NR0B1-SNW1 interaction (NR0B1-SNW1 interaction; tested concentration range of 1-50 μM): did not inhibit
- colony formation in soft agar (KEAP1-mutant NSCLC cells): much less of an effect

SMILES: Cc1ccccc1C(=O)N1CCCC(N(Cc2ccccc2)C(=O)CCl)CC1 (stereo not drawn) [BPK-28, N-benzyl-2-chloro-N-(1-(2-methylbenzoyl)azepan-4-yl)acetamide]
- relative potency for inhibition of FLAG-SNW1 binding to NR0B1 (structure-activity relationship) (NR0B1-SNW1 interaction; compounds at 50 μM): only modest reductions in potency

SMILES: CN[C@@H]1C[C@H]2O[C@@](C)([C@@H]1OC)n1c3ccccc3c3c4c(c5c6ccccc6n2c5c31)C(=O)NC4 [staurosporine]
- changes in cysteine reactivity [1]: neither of which caused substantive changes in cysteine reactivity

Source: patent US20200278355A1, “CONJUGATED PROTEINS AND USES THEREOF” (THE SCRIPPS RESEARCH INSTITUTE, priority 2017, published 2020)
